Test results from patent US20170190705A1, “Compositions and Methods for Inhibiting BMP” (THE BRIGHAM AND WOMAN'S HOSPITAL, INC., priority 2014, published 2017).

Key:
FGFR3 = FGFR3 (Homo sapiens, UniProt P22607); test: Kinome profiling FGFR3; format: biochemical; details: read-out: Inhibitory activity FGFR3; for inhibition at 0.1 µM: 100 nM
Experimental: (§1) . The kinome-wide selectivity was determined following the methods previously reported by Mohedas et al., ACS Chem Biol 2013, 8, 1291-1302 and Sanvitale et al., PLoS One 2013, 8, e62721.

FMS = FMS (Homo sapiens, UniProt P07333); test: Kinome profiling FMS; format: biochemical; details: read-out: Inhibitory activity FMS; for inhibition at 0.1 µM: 100 nM
Experimental: as §1

FGR = FGR (Homo sapiens, UniProt P09769); test: Kinome profiling FGR; format: biochemical; details: read-out: Inhibitory activity FGR; for inhibition at 0.1 µM: 100 nM
Experimental: as §1

MST2 = target: T1, MST2 (Homo sapiens, UniProt Q13188); test: Kinome profiling MST2; format: biochemical; details: read-out: Inhibitory activity MST2; for inhibition at 0.1 µM: 100 nM
T1 sequence (Q13188 1-491): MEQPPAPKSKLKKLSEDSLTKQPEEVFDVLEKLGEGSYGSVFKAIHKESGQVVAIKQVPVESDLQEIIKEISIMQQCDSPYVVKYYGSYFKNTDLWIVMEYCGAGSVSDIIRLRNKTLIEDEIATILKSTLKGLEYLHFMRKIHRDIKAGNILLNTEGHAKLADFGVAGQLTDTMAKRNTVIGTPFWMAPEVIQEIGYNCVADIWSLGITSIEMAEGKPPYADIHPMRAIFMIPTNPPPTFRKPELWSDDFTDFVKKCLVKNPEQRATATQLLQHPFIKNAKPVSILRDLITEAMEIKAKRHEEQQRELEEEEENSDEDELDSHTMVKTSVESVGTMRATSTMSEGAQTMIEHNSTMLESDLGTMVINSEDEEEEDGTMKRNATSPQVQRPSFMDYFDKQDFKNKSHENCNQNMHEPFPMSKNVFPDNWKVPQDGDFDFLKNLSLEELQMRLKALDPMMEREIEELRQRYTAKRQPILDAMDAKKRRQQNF
Experimental: as §1

CK1-γ2 = CK1-γ2 (Homo sapiens, UniProt P78368); test: Kinome profiling CK1-γ2; format: biochemical; details: read-out: Inhibitory activity CK1-γ2; for inhibition at 0.1 µM: 100 nM
Experimental: as §1

caALK2 = target: T2, caALK2 (Homo sapiens, UniProt Q04771, Q207D); test: Luciferase reporter assay constitutively active ALK2; format: cell-based
T2 construct: expressed in transfected cells; host or cells: C2C12 BRE-Luc cells infected with adenovirus (MOI 100)
Experimental: The cells were incubated for 1 h (37° C. and 10% CO2) and allowed to settle and attach. Compounds of interest or DMSO were diluted in DMEM and added at final compound concentrations of 1 nM to 10 μM. Cells were then incubated for 30 min. Adenovirus expressing constitutively active BMP and TGF-β type I receptors (Ad.caALK1-5), generously provided by Dr. Akiko Hata (University of to California at San Francisco), were added to achieve a multiplicity of infection (MOI) of 100. Plates were incubated overnight at 37° C. Cell viability was assayed with an MIT (3-(4,5-dimethylthiazol-2-yl)-2,5-diphenyl tetrazolium bromide) colorimetric assay (Promega) per the manufacturer's instructions. Media was discarded, and firefly luciferase activity was measured (Promega) according to manufacturer's protocol. Light output was measured using a Spectramax L luminometer (Molecular Devices) with an integration time of one second per well. Data was normalized to 100% of incremental BRE-Luc activity due to adenoviruses specifying caALK1, 2, or 3, or the incremental CAGA-Luc activity due to adenoviruses specifying caALK4 or 5.

TRKC = TRKC (Homo sapiens, UniProt Q16288); test: Kinome profiling TRKC; format: biochemical; details: read-out: Inhibitory activity TRKC; for inhibition at 0.1 µM: 100 nM
Experimental: as §1

CDK5/p35 = CDK5/p35 (Homo sapiens, UniProt Q00535); test: Kinome profiling CDK5/p35; format: biochemical; details: read-out: Inhibitory activity CDK5/p35; for inhibition at 0.1 µM: 100 nM
Experimental: as §1

AURORA-B = AURORA-B (Homo sapiens, UniProt Q96GD4); test: Kinome profiling AURORA-B; format: biochemical; details: read-out: Inhibitory activity AURORA-B; for inhibition at 0.1 µM: 100 nM
Experimental: as §1

Sequence of FGFR3 (P22607 23-806): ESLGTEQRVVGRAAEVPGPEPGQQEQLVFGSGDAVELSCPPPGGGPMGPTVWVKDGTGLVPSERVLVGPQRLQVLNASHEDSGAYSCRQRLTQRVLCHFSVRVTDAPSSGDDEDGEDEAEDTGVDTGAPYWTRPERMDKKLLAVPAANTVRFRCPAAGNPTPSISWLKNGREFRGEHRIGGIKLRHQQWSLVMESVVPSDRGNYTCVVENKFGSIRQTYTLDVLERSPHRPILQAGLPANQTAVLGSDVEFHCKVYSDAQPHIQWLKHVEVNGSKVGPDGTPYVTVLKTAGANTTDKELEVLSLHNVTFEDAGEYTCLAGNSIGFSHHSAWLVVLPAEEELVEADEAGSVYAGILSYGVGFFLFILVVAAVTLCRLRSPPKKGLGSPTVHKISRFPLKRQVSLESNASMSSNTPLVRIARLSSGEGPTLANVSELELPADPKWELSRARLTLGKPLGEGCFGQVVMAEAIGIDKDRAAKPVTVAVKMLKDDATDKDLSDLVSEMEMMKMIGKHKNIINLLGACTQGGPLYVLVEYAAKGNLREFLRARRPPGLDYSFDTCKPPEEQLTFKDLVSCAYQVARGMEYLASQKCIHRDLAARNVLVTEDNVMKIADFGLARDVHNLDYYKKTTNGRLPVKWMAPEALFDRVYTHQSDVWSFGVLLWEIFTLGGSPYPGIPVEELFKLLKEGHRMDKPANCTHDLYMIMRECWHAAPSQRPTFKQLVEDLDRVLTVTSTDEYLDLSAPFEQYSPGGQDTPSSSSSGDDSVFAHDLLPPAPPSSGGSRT
Sequence of FGR (P09769 whole entry): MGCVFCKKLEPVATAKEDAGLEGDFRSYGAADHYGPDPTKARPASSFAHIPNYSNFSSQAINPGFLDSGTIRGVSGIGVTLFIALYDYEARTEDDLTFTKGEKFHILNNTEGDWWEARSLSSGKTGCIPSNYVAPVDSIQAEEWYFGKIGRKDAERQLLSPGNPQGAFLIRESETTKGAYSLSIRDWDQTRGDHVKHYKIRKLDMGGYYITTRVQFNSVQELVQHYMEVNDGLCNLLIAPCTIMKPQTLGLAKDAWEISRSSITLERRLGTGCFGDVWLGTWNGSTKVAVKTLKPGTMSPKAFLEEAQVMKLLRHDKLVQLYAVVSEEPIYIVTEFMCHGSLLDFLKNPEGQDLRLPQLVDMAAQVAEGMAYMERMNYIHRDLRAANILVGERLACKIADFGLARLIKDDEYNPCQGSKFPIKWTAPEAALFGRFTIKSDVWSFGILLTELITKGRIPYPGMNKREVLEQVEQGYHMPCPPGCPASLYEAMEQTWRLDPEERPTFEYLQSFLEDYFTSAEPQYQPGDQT
Sequence of CDK5/p35 (Q00535 whole entry): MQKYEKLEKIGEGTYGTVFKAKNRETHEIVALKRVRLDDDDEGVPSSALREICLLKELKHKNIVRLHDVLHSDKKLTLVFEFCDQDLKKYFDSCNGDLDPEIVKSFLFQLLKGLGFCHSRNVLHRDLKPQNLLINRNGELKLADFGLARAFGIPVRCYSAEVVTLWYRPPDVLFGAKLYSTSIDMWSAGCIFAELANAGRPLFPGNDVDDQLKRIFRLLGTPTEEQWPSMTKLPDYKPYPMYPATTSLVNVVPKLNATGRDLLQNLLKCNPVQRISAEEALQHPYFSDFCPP
Sequence of CDK5/p35 (Q15078 whole entry partner): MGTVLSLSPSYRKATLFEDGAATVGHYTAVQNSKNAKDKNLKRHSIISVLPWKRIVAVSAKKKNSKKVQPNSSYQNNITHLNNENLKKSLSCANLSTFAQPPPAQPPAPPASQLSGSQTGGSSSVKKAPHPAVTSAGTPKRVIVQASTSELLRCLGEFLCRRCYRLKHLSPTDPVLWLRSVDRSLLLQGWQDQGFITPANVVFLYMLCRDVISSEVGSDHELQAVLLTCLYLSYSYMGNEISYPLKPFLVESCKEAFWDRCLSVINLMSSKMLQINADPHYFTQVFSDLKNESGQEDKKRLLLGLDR
Sequence of FMS (P07333 20-972): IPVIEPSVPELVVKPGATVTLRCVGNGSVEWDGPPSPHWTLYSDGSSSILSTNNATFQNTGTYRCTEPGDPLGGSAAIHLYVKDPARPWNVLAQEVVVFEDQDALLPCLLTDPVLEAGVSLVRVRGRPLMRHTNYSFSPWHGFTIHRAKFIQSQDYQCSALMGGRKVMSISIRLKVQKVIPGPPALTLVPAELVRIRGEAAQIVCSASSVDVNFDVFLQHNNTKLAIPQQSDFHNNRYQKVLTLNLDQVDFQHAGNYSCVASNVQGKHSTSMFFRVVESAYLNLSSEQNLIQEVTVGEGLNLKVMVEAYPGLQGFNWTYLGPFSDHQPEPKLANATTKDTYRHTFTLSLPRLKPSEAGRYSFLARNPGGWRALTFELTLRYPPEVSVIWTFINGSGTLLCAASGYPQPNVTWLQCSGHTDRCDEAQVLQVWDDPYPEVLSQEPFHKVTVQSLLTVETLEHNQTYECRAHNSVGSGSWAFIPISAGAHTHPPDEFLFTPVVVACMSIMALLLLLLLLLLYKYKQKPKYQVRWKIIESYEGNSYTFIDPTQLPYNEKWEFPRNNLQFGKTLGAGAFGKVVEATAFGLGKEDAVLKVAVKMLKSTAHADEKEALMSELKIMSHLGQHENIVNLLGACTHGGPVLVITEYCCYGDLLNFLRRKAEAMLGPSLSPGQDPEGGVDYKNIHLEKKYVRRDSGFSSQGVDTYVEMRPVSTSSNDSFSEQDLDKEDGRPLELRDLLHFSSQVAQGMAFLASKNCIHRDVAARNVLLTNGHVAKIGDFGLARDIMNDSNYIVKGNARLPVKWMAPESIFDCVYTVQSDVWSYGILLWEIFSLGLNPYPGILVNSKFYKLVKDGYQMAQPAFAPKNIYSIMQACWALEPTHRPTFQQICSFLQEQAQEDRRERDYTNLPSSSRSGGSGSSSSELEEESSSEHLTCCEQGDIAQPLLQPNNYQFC
Sequence of TRKC (Q16288 32-839): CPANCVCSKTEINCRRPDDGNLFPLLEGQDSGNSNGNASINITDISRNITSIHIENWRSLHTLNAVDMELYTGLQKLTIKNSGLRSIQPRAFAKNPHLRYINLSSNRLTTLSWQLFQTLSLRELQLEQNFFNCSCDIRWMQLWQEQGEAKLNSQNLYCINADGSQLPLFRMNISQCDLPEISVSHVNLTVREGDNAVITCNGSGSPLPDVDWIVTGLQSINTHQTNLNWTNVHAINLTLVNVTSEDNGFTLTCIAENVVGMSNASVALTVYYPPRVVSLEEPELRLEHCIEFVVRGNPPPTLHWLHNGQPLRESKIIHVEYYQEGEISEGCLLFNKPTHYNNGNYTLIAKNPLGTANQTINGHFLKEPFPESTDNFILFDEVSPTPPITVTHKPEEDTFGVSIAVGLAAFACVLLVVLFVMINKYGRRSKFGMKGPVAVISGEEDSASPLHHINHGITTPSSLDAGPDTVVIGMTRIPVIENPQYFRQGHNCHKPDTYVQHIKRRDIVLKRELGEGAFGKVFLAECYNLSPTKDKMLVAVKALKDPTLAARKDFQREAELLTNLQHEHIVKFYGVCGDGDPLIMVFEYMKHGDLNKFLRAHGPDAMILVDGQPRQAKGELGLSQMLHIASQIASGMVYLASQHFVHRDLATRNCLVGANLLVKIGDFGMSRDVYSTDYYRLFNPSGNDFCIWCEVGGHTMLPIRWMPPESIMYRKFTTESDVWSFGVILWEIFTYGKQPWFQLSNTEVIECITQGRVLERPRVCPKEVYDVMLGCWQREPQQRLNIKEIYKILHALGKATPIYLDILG
Sequence of AURORA-B (Q96GD4 whole entry): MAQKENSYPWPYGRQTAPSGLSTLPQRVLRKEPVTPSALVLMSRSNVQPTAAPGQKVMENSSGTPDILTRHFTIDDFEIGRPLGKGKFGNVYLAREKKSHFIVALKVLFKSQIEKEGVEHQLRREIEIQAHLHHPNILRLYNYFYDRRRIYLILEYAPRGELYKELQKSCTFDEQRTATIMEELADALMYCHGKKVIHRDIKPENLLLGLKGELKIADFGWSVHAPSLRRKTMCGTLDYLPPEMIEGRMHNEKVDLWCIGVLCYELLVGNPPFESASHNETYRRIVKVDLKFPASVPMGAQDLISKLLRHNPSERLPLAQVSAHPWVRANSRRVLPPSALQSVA
Sequence of CK1-γ2 (P78368 whole entry): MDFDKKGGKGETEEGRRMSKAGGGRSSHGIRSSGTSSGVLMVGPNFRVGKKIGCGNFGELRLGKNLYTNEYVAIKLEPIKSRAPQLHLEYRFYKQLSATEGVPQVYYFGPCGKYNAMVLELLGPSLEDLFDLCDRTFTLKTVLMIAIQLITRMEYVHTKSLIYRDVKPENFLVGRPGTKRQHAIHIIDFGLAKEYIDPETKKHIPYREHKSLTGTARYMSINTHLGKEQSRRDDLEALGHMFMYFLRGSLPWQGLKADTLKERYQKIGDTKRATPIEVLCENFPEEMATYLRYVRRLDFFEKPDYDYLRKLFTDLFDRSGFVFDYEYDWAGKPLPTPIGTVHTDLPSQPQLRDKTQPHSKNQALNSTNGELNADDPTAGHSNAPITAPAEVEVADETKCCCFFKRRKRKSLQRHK
T2 sequence (Q04771 21-509 Q207D): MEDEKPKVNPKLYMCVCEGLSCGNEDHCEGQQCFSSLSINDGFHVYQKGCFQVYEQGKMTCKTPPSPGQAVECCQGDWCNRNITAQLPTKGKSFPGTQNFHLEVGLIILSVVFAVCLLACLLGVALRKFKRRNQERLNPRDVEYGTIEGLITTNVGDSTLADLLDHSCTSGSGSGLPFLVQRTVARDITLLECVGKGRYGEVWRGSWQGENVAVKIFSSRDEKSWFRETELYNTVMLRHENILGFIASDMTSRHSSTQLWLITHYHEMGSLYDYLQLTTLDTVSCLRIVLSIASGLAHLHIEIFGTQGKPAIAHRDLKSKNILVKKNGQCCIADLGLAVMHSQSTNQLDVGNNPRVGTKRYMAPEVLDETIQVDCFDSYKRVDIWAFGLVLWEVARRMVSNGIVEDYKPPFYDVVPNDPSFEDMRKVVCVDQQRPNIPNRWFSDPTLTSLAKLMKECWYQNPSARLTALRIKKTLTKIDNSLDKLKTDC

SMILES	inhibition at 0.1 µM (FGFR3) [%]	inhibition at 1 µM (FGFR3) [%]	inhibition at 0.1 µM (FMS) [%]	inhibition at 1 µM (FMS) [%]	inhibition at 0.1 µM (FGR) [%]	inhibition at 1 µM (FGR) [%]	inhibition at 0.1 µM (MST2) [%]	inhibition at 1 µM (MST2) [%]	inhibition at 0.1 µM (CK1-γ2) [%]	inhibition at 1 µM (CK1-γ2) [%]	potency (caALK2; comparison across multiple assays (Tables 6 and 7))	inhibition at 0.1 µM (TRKC) [%]	inhibition at 1 µM (TRKC) [%]	inhibition at 0.1 µM (CDK5/p35) [%]	inhibition at 1 µM (CDK5/p35) [%]	inhibition at 0.1 µM (AURORA-B) [%]	inhibition at 1 µM (AURORA-B) [%]	IC50 (caALK2; read-out: Cell Based Assay caALK2 IC50) [nM]
COc1cc(-c2cc(-c3ccc(N4CCNCC4)cc3)cnc2C)cc(OC)c1OC [Compound 10, 1-(4-(6-methyl-5-(3,4,5-trimethoxyphenyl)pyridin-3-yl)phenyl)piperazine]	0	0	5	33	9	36	0	1	1	4	reduction in potency	4	4	2	2	2	3	
COc1cc(-c2cc(-c3ccc(N4CCNCC4)cc3)cnc2N)cc(OC)c1OC [Compound 15, 5-(4-(piperazin-1-yl)phenyl)-3-(3,4,5-trimethoxyphenyl)pyridin-2-amine]	2	6	23	65	36	76	3	4	3	12		3	3	0	0	3	8	5
